Data as given in ChEMBL document CHEMBL3124876, “A perylene derivative regulates HIF-1α and Stat3 signaling pathways” (Bioorg Med Chem, 2014).
Activity calls are given as the source filed them. No cut-off for these calls is given here.

Key:
[1] = target: Endothelial PAS domain-containing protein 1 (Homo sapiens) (UniProt Q99814); test: Inhibition of HIF-2 alpha in human PC3 cells after 18 hrs by Western blotting analysis in hypoxia condition; type: cell-based; conditions: PC-3
[2] = test system: PANC-1; test: Reduction of total Stat3 level in human PANC1 cells at 0.5 to 20 uM by Western blotting analysis; type: functional, cell-based
[3] = target: Signal transducer and activator of transcription 3 (Homo sapiens) (UniProt P40763); conditions: 10 uM
Chain of Signal transducer and activator of transcription 3 (Homo sapiens) (P40763 whole entry): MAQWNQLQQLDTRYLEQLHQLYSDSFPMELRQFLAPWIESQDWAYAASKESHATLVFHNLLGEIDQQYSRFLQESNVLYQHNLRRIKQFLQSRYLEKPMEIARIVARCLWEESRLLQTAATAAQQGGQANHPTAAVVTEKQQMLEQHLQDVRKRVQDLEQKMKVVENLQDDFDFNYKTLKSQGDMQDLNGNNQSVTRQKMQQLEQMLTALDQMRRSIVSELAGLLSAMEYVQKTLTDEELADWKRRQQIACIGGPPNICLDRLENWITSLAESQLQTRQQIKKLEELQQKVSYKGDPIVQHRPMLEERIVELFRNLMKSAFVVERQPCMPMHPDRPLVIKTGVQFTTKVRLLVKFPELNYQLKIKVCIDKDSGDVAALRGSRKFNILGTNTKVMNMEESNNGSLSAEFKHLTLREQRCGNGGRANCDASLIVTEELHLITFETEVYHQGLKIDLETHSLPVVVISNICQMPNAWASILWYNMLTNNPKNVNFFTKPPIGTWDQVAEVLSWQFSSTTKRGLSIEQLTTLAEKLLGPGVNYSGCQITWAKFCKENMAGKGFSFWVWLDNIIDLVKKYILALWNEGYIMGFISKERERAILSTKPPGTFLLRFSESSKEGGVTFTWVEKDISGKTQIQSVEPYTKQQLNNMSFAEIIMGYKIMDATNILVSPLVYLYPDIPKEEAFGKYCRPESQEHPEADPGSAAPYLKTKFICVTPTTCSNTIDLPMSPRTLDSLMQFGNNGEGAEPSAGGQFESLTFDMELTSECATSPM
Description: Inhibition of STAT3 (unknown origin) assessed as total STAT3 level at 10 uM after 6 hrs by cell-based Western blotting analysis

[4] = target: Hypoxia-inducible factor 1-alpha (Homo sapiens) (UniProt Q16665); test: Inhibition of HIF-1alpha in human MDA-MB-231 cells at 10 uM after 18 hrs by Western blotting analysis in hypoxia condition; type: cell-based
Chain of Hypoxia-inducible factor 1-alpha (Homo sapiens) (Q16665 whole entry, looked up): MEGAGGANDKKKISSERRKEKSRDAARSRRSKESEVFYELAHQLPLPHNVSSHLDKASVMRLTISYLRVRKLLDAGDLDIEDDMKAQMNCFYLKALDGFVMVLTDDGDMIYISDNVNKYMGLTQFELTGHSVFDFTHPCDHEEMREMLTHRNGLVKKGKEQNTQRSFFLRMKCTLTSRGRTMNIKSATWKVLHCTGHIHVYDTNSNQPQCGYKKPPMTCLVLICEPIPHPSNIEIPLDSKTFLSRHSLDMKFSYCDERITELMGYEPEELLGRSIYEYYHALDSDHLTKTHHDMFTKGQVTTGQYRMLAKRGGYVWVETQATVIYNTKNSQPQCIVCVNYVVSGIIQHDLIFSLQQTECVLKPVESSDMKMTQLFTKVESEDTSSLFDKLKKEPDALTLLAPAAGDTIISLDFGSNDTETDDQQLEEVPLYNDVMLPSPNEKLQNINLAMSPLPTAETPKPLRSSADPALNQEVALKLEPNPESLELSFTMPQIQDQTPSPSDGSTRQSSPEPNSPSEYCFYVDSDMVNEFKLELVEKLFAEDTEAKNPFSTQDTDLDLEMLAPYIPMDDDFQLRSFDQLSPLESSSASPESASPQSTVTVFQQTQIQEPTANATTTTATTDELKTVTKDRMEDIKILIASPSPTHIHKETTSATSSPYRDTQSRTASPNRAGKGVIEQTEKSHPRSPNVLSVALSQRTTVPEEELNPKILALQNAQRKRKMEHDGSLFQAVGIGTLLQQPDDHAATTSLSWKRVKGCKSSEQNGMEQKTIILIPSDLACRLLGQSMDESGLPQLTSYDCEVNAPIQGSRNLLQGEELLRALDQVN

[5] = target: Signal transducer and activator of transcription 3 (Homo sapiens) (UniProt P40763); test: Inhibition of Stat3 phosphorylation in human MDA-MB-231 cells assessed as inhibition of c-Myc expression at 1 to 20 uM by Western blotting analysis; type: cell-based

Chain of Endothelial PAS domain-containing protein 1 (Homo sapiens) (Q99814 whole entry, the tested form may be a part): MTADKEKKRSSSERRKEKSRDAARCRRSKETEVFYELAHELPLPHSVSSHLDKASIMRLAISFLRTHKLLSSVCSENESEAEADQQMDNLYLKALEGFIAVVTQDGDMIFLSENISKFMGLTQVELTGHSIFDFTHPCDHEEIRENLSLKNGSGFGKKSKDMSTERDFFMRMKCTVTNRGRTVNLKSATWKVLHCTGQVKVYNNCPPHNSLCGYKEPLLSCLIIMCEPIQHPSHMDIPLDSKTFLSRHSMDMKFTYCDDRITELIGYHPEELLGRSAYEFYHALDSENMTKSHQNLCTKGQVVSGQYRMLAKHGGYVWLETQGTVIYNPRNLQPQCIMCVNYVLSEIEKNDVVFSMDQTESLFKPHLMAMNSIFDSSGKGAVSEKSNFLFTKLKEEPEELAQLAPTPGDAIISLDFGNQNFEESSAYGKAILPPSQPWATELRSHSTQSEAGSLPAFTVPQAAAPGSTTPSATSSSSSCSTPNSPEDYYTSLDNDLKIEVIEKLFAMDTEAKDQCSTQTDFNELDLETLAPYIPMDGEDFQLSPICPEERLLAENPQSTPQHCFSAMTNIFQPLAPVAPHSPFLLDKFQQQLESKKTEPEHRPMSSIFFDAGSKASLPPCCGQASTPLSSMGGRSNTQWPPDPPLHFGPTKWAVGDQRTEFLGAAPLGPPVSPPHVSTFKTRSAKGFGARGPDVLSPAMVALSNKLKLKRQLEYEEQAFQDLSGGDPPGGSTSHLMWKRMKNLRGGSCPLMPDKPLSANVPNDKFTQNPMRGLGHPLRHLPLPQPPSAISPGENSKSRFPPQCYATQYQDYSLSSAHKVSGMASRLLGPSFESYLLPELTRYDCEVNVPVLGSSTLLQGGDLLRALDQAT

inhibition [1]: Active | inhibition [3]: inactive | inhibition [4]: Active | inhibition [5]: Active
Compound: CN(C)CCCN1C(=O)c2ccc3c4ccc5c6c(ccc(c7ccc(c2c37)C1=O)c64)C(=O)N(CCCN(C)C)C5=O
Activity [2]: Active
